From US20240366624A1, “METHODS AND COMPOSITIONS FOR TREATING THROMBOTIC DISEASE” (Washington University, priority 2023, published 2024)

Columns and labels:
[1] = H2O2 (antioxidant) activity assay; type: biochemical; details: 100 μM
Source text: (§1) FIG. 17(A-F) is an exemplary embodiment of identification of novel ERO1α inhibitors by high throughput screening in accordance with the present disclosure. FIG. 17A: A scheme of an ERO1α activity assay. FIG. 17B: Screening of chemical libraries in the ERO1α activity assay. FIG. 17C: The inhibitory effect of selected compounds on ERO1α activity. FIG. 17D: The inhibitory effect of selected compounds on PDI activity. FIG. 17E: The inhibitory effect of selected compounds on H2O2 activity. FIG. 17F: The inhibitory effect of selected compounds on thiol-reacting activity. The data represent the mean±SD (n=3). *P<0.05, **P<0.01, ***P<0.001, and ****P<0.0001 vs. vehicle control, Student's t-test.
(§2) To identify a novel ERO1α inhibitor, 5800 compounds were screened using an ERO1α activity assay (FIG. 17A and FIG. 17B). […] The selected compounds were further tested in assays measuring PDI, antioxidant, and thiol-reacting activities (FIG. 17D through FIG. 17F). […] B12 inhibited P-selectin exposure and αIIbβ3 activation in agonist-activated mouse and human platelets in a concentration-dependent manner (FIG. 18B through FIG. 18E).

[2] = target: T1, MAO-A (monoamine oxidase A) (Homo sapiens, UniProt P21397); test: MAO-A activity assay; type: biochemical; details: 100 μM
T1 sequence (P21397 1-527): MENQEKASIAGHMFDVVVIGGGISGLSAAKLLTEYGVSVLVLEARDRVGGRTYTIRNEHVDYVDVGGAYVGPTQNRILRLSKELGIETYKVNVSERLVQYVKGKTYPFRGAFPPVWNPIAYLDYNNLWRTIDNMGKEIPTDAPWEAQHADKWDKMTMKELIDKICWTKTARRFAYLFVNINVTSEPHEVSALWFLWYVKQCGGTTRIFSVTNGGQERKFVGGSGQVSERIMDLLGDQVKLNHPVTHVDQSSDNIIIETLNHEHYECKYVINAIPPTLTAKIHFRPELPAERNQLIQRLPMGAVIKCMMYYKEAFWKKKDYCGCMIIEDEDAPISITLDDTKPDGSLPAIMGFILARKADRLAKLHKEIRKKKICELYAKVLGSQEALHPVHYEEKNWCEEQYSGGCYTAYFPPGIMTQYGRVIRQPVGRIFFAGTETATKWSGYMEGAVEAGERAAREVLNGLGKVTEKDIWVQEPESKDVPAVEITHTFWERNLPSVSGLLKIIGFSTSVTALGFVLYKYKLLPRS

[3] = thiol-reacting (GSH) activity assay; type: biochemical; details: 100 μM
Source text: as §1, §2

ERO1α = target: T2, ERO1α (Homo sapiens, UniProt Q96HE7); test: ERO1α activity assay; type: biochemical; details: 20 μM
T2 sequence (Q96HE7 24-468): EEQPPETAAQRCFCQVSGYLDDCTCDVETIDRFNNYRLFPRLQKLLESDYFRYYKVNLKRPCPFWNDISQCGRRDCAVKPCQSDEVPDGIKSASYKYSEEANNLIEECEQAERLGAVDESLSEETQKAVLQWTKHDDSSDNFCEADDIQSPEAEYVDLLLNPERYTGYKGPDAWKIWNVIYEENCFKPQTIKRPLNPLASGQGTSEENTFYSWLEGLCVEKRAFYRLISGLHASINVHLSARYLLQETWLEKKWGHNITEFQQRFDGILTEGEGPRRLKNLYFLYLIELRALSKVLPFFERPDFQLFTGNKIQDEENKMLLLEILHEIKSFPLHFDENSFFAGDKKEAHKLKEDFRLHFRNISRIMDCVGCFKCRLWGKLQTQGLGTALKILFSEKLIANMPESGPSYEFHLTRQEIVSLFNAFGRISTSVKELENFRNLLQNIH
Source text: as §1, §2

PDI = PDI (Homo sapiens, UniProt P07237); test: PDI activity assay; type: biochemical; details: 100 μM
PDI, sequence (P07237 18-508, species assumed): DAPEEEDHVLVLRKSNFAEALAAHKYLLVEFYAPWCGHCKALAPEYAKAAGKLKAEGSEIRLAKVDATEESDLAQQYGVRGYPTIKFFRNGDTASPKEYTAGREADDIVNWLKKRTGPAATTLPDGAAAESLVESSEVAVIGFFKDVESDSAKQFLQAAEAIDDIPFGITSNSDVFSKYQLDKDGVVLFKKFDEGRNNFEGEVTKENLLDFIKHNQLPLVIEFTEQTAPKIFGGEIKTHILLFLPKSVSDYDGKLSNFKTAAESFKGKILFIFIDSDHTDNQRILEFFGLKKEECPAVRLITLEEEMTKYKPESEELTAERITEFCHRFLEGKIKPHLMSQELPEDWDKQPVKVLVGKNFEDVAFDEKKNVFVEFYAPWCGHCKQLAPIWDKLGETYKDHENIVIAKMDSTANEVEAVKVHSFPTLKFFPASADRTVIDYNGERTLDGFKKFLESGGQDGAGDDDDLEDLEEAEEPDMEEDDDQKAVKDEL
Source text: as §1, §2

Ero1α-null platelets = test: Platelet aggregation, Ero1α-null platelets; type: cell-based, mouse; details: 50 μg/mL protein, 0.025 U/mL thrombin
Protocol: FIG. 7(A-L) is an exemplary embodiment of crucial intracellular ERO1α (endoplasmic reticulum oxidoreductase 1a) for platelet activation, aggregation, and thrombus formation in accordance with the present disclosure. FIG. 7A: Ex vivo platelet thrombus formation in a flow chamber assay. Adherent and aggregated platelets were stained with rhodamine-conjugated phalloidin and imaged by confocal microscopy. Representative images (bar, 10 μm). Surface coverage and thrombus volume were measured (mean±SD, n=4). FIG. 7(B-E): Aggregation and ATP secretion of wild type (WT) and Ero1α-null platelets were induced by 0.025 U/mL thrombin, 0.05 μg/mL CRP (collagen-related peptide), 0.5 μM A23187, or 2.5 μM ADP. Platelet aggregation (i) and ATP secretion (ii). FIG. 7F: Ero1α-null platelets were pretreated with 50 μg/mL wtERO1α or wtPDI and then with 0.025 U/mL thrombin. Quantification graphs of aggregation and ATP secretion are presented as the mean±SD (n=3-4). FIG. 7G and FIG. 7H: P-selectin exposure and αIIbβ3 integrin activation of WT and Ero1α-null platelets were analyzed by flow cytometry. The data are presented as the geometric mean fluorescence intensity (MFI) value (mean±SD, n=3-4). FIG. 7I: WT and Ero1α-null platelets were treated with or without 0.025 U/mL thrombin for 1 minute in an aggregometer. The lysates were immunoprecipitated with control IgG or anti-β3 antibodies and subjected to immunoblotting with antibodies against talin1 or β3 and densitometric analysis (mean±SD, n=3). FIG. 7J: WT and Ero1α-null platelets were treated with or without 0.025 U/mL thrombin, followed by transmission electron microscopy. The original magnification was 34 800, and the extension was 313 000. Bar, 500 nm. FIG. 7K and FIG. 7L: Intravital microscopy was performed to determine the effect of 15E9 (1-3 μg/g body weight [BW]) and a blocking anti-PDI (protein disulfide isomerase) antibody (BD34, 3 μg/g BW) on platelet thrombus formation and fibrin generation at the site of laser-induced cremaster arteriolar injury (n=27-40 arterioles in 6 mice per group). The n indicates biological replicates. P values determined by unpaired Student t test (FIG. 7(A-E) and FIG. 7(G-1)), ANOVA and Dunnett test (FIG. 7F), or Mann-Whitney U test (FIG. 7K and FIG. 7L).
FIG. 9(A-C) is an exemplary embodiment of EN460 inhibiting thrombin-induced aggregation of mouse and human platelets in accordance with the present disclosure. […] P values determined by ANOVA and Dunnett's test (FIG. 9(A-B)) or Student's t-test (FIG. 9C).
FIG. 10(A-E) is an exemplary embodiment of 15E9 not affecting platelet activation and aggregation in accordance with the present disclosure. […] P values determined by unpaired Student's t-test (vs. mIgG1). […]

Row | Molecule | MAO-A inhibition at 100 μM (%) [2] | ERO1α inhibition at 20 μM (%) (ERO1α) | PDI inhibition at 100 μM (%) (PDI) | H2O2 inhibition at 100 μM (%) [1] | GSH inhibition at 100 μM (%) [3] | rescue of the defect in Ero1α-null platelet aggregation (Ero1α-null platelets)
1 | O=C(COc1ccccc1)N1c2ccccc2Sc2ccccc21 [B12-3] | 24.8 ± 4% | 57.0 ± 19% | 10.2 ± 3% | 2.1 ± 1% | 22.3 ± 7% | –
2 | O=C(COc1ccc(O)cc1)N1c2ccccc2Sc2ccccc21 [B12-4] | 34.8 ± 4% | 74.0 ± 17% | 13.2 ± 3% | 6.0 ± 2% | 27.2 ± 7% | –
3 | N#Cc1cc(SCC(=O)N2c3ccccc3Sc3ccccc32)nc2c1CCCC2 [B12-6] | 37.7 ± 8% | 87.6 ± 17% | 20.2 ± 4% | 1.7 ± 1% | 30.1 ± 10% | –
4 | CCCn1c(SCC(=O)N2c3ccccc3Sc3ccccc32)nc2ccccc21 [B12-7] | 39.1 ± 8% | 75.5 ± 20% | 30.3 ± 8% | 1.9 ± 1% | 33.3 ± 10% | –
5 | O=C(COc1nc2ccccc2s1)n1c2ccccc2c2ccccc21 [B12-8*] | 22.3 ± 5% | 48.6 ± 10% | 8.6 ± 3% | 0.3 ± 0.1% | 13.6 ± 3% | –
6 | wtPDI: recombinant wild-type PDI | – | – | – | – | – | did not rescue

More lines, main results first:

Row | MAO-A inhibition at 100 μM (%) [2] | ERO1α inhibition at 20 μM (%) (ERO1α) | PDI inhibition at 100 μM (%) (PDI) | Molecule | H2O2 inhibition at 100 μM (%) [1] | GSH inhibition at 100 μM (%) [3] | rescue of the defect in Ero1α-null platelet aggregation (Ero1α-null platelets)
7 | 28.1 ± 5% | 82.3 ± 20% | 23.1 ± 5% | Cc1nc2ccccc2nc1SCC(=O)N1c2ccccc2Sc2ccccc21 [B12-11] | 2.3 ± 1% | 33.5 ± 4% | –
8 | 36.7 ± 8% | 53.7 ± 9% | 19.1 ± 4% | COc1ccc2nc(SCC(=O)n3c4ccccc4c4ccccc43)nc(C)c2c1 [B12-13*] | 4.2 ± 1% | 33.1 ± 4% | –
9 | 28.3 ± 5% | 59.0 ± 6% | 21.4 ± 6% | CCCn1c2ccccc2c2nnc(SCC(=O)N3c4ccccc4Sc4ccccc43)nc21 [B12-14] | 3.4 ± 1% | 31.9 ± 5% | –
10 | 34.3 ± 6% | 11.5 ± 3% | 11.9 ± 3% | CCCc1cc(O)nc(SCC(=O)N2c3ccccc3Sc3ccccc32)n1 [B12-16] | 80.0 ± 18% | 21.9 ± 6% | –
11 | 37.5 ± 7% | 83.9 ± 16% | 12.4 ± 5% | COc1cc(O)nc(SCC(=O)N2c3ccccc3Sc3ccccc32)n1 [B12-18] | 0.2 ± 0.1% | 25.9 ± 5% | –
12 | 50.2 ± 7% | 82.3 ± 15% | 6.7 ± 2% | Cc1cc(O)nc(SCC(=O)N2c3ccccc3Sc3ccccc32)n1 [B12-20] | 2.3 ± 1% | 10.2 ± 2% | –
13 | 28.8 ± 6% | 60.5 ± 8% | 38.5 ± 8% | O=C(COc1nc2ccccc2s1)N1c2ccccc2Sc2ccccc21 [B12-22] | 4.9 ± 1% | 62.5 ± 7% | –
